Laboratory results reported in patent US6147078A, “Pyrazinone thrombin inhibitors” (Merck & Co., Inc., priority 1999, dated 2000).

What was measured:
[1] = Metabolite identification in urine of male, bile duct-cannulated rats after intravenous dosing; type: in vivo, rat; details: carbon 14 labeled, intravenous 20 mg/kg in saline, urine collected over 24 hours
Description: Purification of 3-(2-Phenethyleneamino)-6-hydroxymethyl-1-(2-methyl-6-amino-3-methylenecarboxamidomethyl)pyrazin-2-one from male, bile duct-cannulated rats.
(§1) Rats were dosed intravenously with carbon 14 labeled [drawing 16] at 20 mg/kg in saline at 1 mL/kg. Bile and urine were collected periodically over 24 hours. Aliquots of these were analyzed for total radioactivity. Urine was also fractionated by HPLC using Zorbax XDB-C8 column eluted with 0.1% trifluoroacetic acid-water and acetonitrile gradient, and the fractions analyzed by mass spectrometry.

[2] = test system: thrombin; test: Bioassay of HPLC urine fractions for inhibitory effect on thrombin activity; type: biochemical; details: urine HPLC fraction from rats, evaporated to dryness
Description: as §1
In another procedure, the urine was fractionated by HPLC. An aliquot of the fractions was assayed for total radioactivity, and the remaining volume was evaporated to dryness, under nitrogen, and bioassayed for inhibitory effect on the thrombin activity.

Compound	metabolite in urine (site of hydroxylation) [1]	inhibitory effect on the thrombin activity [2]
Cc1nc(N)ccc1CNC(=O)Cn1c(C)cnc(NCCc2ccccc2)c1=O	hydroxylation on the methylpyrazinone moiety	
Cc1nc(N)ccc1CNC(=O)Cn1c(CO)cnc(NCCc2ccccc2)c1=O [6-HYDROXYMETHYL-3-(2-PHENETHYLAMINO )-1-(2-AMINO-6-METHYL-5-METHYLCARBOXAMIDOMETHYLPYRIDINYL)-PYRAZINONE]		significant inhibitory activity
